For data set [1], the target named is T1, acetylcholinesterase (Type V-S: from electric eel) (Electrophorus electricus, UniProt O42275).
T1 construct: purchased Sigma Chemical Co., U.S.A. Type V-S
The data set is described as follows: Measurement of acetylcholinesterase activity (modified Ellman's method). Format: biochemical. Particulars: 0.03 U enzyme, 37° C., 412 nm; read-out: AChE Inhibition (IC50). The text has this:
Experiment for Measuring Acetylcholinesterase Inhibition Effect
The compounds used for measuring acetylcholinesterase (AChE) activity such as acetylcholinesterase (Type V-S: from electric eel), acetylcholine iodide, 5,5-dithio-bis(2-nitro benzoic acid), and neostigmine bromide, were products of Sigma Chemical Co., U.S.A., and high purity reagents were selected for other reagents.
3. Measurement of Acetylcholinesterase Activity
Modified Ellman's method for measuring enzyme activity was used to meet with the measurement of acetylcholinesterase activity. The enzyme was separated into certain amount, and kept under 80° C. below zero. The final concentration of the enzyme used in the experiment was 0.03 unit concentration. 1000 μM of […] dissolved in 0.1 M sodium phosphate buffer (pH 8.0) was used for substrate. As for dye reagent, 5,5-dithio-bis-(2-nitrobenzoic acid) (39.6 mg) and sodium bicarbonate(15 mg) dissolved in 10 mL sodium phosphate buffer (0.1M, pH 7.0) was used.
The procedure for the enzyme reaction was as follows. After adding 200 μl DTNB and 100 μl enzyme (0.03 U) to 2 mL sodium phosphate buffer (pH 8.0), the resulting mixture was pre-heated at 37° C. for 10 minutes. To the resulting mixture 200 μl substrate was added, and allowed to react for 3 minutes. The spectrometer of finished reaction was measured at 412 nm wave. IC50 value connected to activity inhibition was measured by quantal-dose response.
A general note: In Ellman's method for cholinesterases, released thiocholine reacts with DTNB.

For data set [2], the target named is T2, β-amyloid (1-42) (Homo sapiens, UniProt P05067).
T2 construct: β-amyloid (1-42) was a product of American Peptide Co., U.S.A; purchased American Peptide Co., U.S.A
Briefly: Inhibition of β-amyloid (1-42) aggregation (thioflavin T fluorescence). It counts as biochemical. The following applies: 5 μM β-amyloid 1-42, 37° C., 26 hours. The source says: Experiment for Measuring Inhibition of β-amyloid Aggregation
As the materials used for measuring β-amyloid aggregation, β-amyloid (1-42) was a product of American Peptide Co., U.S.A.; and thioflavin T, phosphate buffered saline tablets, and dimethyl sulfoxide (DMSO, 99.5%) were products of Sigma Chemical Co., U.S.A., and high purity reagents were selected for other reagents.
3. Experiment for Measuring Inhibition of β-amyloid (1-42) Aggregation
Fluorescent analysis was used in measuring β-amyloid aggregation. This peptide compound was kept in the deep freezer (−80° C.), and the final concentration used in the mesurement was 5 μM. Compounds that need to be analyzed were dissolved in 99.5% DMSO, and fluorescent substance was prepared by dissolving thioflavin T (5 μM) in 0.01 M sodium phosphate buffer.
The procedure for aggregation reaction was as follows. To 0.01 M sodium phosphate buffer (92.5 μl) was added fixed concentration of a compound, for measuring purpose, (5 μl) and 5 μM β-amyloid 1-42 (2.5 μl). The resulting mixture was kept at 37° C. for 26 hours to aggregate. 5 μM tioflavin T (2000 μl) was added thereto, and then fluorescent strength was measured with fluorescent spectrometer.

Data set [3] concerns ICR mice. The data set is described as follows: Acute toxicity test on animals. It counts as in vivo. Particulars: 50 mg/kg to 500 mg/kg intraperitoneal, single injection, observed for 10 days. How it is done:
In order for a compound to be comprised in the pharmaceutical composition for treating Alzheimer's disease, it must be nontoxic. […] This test followed the protocol of Korea Food & Drug Administration. […] The compounds used for the test were diluted with wheat germ oil.

Data set [4] relates to patients with Alzheimer's disease. Particulars: cited from earlier work.

Each structure is given as a SMILES string. pIC50: −log10 of the molar value.

T2 sequence (P05067 672-713 limits assumed): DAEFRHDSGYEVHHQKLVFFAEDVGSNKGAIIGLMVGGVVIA
T1 sequence (O42275 24-633): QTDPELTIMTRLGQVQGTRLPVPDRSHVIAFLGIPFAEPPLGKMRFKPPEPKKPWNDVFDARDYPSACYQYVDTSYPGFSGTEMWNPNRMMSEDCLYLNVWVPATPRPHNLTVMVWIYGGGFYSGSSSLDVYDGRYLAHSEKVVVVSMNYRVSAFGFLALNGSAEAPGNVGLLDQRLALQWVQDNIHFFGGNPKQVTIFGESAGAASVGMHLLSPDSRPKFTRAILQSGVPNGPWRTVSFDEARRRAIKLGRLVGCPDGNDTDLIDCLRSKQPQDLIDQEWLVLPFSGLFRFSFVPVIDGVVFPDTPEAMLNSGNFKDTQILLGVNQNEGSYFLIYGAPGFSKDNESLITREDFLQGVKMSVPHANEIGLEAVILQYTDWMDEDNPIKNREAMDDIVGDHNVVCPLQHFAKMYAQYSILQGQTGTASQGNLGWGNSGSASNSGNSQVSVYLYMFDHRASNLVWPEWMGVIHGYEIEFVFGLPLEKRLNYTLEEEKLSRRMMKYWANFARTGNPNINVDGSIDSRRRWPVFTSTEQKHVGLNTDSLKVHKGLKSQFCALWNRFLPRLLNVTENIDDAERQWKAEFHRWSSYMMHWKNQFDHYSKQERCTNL

Take `O=C(OCCCCN1CCC(OC(c2ccccc2)c2ccccc2)CC1)c1ccc([N+](=O)[O-])cc1` [Example 1, 4-[4-(benzhydryloxy)piperidino]butyl-4-nitrobenzoate]: the negative-log IC50 (pIC50) in data set [1] is 5.14; in data set [2] it was 4.27.

With `O=C(Nc1ccc(F)cc1)OCCCCN1CCC(OC(c2ccccc2)c2ccccc2)CC1` [Example 10, 4-[4-(benzhydryloxy)piperidino]butyl N-(4-fluorophenyl)carbamate], the pIC50 was 5.61 in data set [1] and 3.94 in data set [2]. `O=C(OCCCCN1CCC(OCc2ccccc2)CC1)c1ccccc1` [Example 15, 4-[4-(benzyloxy)piperidino]butyl benzoate]: in data set [1], the negative-log IC50 (pIC50) was below 4.00. Consider `CC(C)(C)c1ccc(C(=O)OCCCCN2CCC(OC(c3ccccc3)c3ccccc3)CC2)cc1` [Example 6, 4-[4-(benzhydryloxy)piperidino]butyl 4-(tert-butyl)benzoate], for which the death rate result in data set [3] is “no death”. For `CC(C)(C)c1ccc(C(=O)OCCCCN2CCC(OCc3ccccc3)CC2)cc1` [Example 17, 4-[4-(benzyloxy)piperidino]butyl 4-(tert-butyl)benzoate], the negative logarithm of the IC50 (pIC50) in data set [1] is 4.91. For the molecule `O=C(OCCCCN1CCC(OC(c2ccccc2)c2ccccc2)CC1)c1cccc(F)c1` [Example 8, 4-[4-(benzhydryloxy)piperidino]butyl 3-fluorobenzoate], the values for the negative-log IC50 (pIC50) in data set [1] and in data set [2] were 4.15 and 4.47, respectively. Regarding `O=C(OCCCCN1CCC(OCc2ccccc2)CC1)c1cccc(F)c1` [Example 19, 4-[4-(benzyloxy)piperidino]butyl 3-fluorobenzoate], the negative-log IC50 (pIC50) in data set [1] was below 4.00. As to `O=C(OCCCCN1CCC(OC(c2ccccc2)c2ccccc2)CC1)c1ccc(F)cc1` [Example 3, 4-[4-(benzhydryloxy)piperidino]butyl 4-fluorobenzoate], the pIC50 was 6.08 in data set [1] and 4.44 in data set [2]. `O=C(OCCCCN1CCC(OC(c2ccccc2)c2ccccc2)CC1)c1cccnc1` [Example 11, 4-[4-(benzhydryloxy)piperidino]butyl nitcotinate]: the negative logarithm of the IC50 (pIC50) in data set [1] was below 3.82; in data set [2], 4.21. Turning to `O=C(OCCCCN1CCC(OCc2ccccc2)CC1)c1ccc(F)cc1` [Example 14, 4-[4-(benzyloxy)piperidino]butyl 4-fluorobenzoate], the negative logarithm of the IC50 (pIC50) in data set [1] was below 4.00. On the same count and under the same terms, next, `O=C(OCCCCN1CCC(OCc2ccccc2)CC1)c1ccc(Cl)cc1` [Example 13, 4-[4-(benzyloxy)piperidino]butyl 4-chlorobenzoate]: below 4.00. Consider `O=C(OCCCCN1CCC(OC(c2ccccc2)c2ccccc2)CC1)c1ccc(Cl)cc1` [Example 2, 4-[4-(benzhydryloxy)piperidino]butyl-4-chlorobenzoate], for which the negative-log IC50 (pIC50) in data set [1] was 6.52; in data set [2], 4.55. Besides, the death rate result in data set [3] is recorded as “no death”. As to `O=C(OCCCCN1CCC(OC(c2ccccc2)c2ccccc2)CC1)c1ccccc1` [Example 4, 4-[4-(benzhydryloxy)piperidino]butyl benzoate], the figures for the negative logarithm of the IC50 (pIC50) in data set [1] and in data set [2] were 5.89 and 4.39, respectively. On to `Nc1c2c(nc3ccccc13)CCCC2` [Tarcrine], for which, in data set [4], the “share of patients with Alzheimer's disease in whom efficacious” value is recorded as “about 25%”. On to `O=C(OCCCCN1CCC(OCc2ccccc2)CC1)c1cccc(Cl)c1` [Example 18, 4-[4-(benzyloxy)piperidino]butyl 3-chlorobenzoate], for which, in data set [1], the negative-log IC50 (pIC50) was below 4.00. On to `O=C(OCCCCN1CCC(OCc2ccccc2)CC1)c1ccc([N+](=O)[O-])cc1` [Example 12, 4-[4-(benzyloxy)piperidino]butyl 4-nitrobenzoate], for which the negative-log IC50 (pIC50) in data set [1] is below 4.00. Still for that read-out and setting: next, `CC(C)c1ccc(C(=O)OCCCCN2CCC(OCc3ccccc3)CC2)cc1` [Example 16, 4-[4-(benzyloxy)piperidino]butyl 4-isopropylbenzoate]: 4.83.

Usually pIC50 stands for −log10 of the IC50, conventionally taken in molar units.

The record behind these values is patent publication US7288552B2, “Piperidine derivatives, process for preparation thereof, and pharmaceutical composition for alzheimer's disease containing the same” (STC NARA Co., Ltd., priority 2001, dated 2007).
